Among the data in patent publication US7405204B2, “Nucleoside compounds for treating viral infections” (Genelabs Technologies, Inc., priority 2005, dated 2008) are inhibition values, retold here.

The subject of experiment [1] is HCV replicon I389luc-ubi-neo/NS3-3′/ET in ET (Huh-lucubineo-ET) cell line. The experiment in a line: Replicon assay (luciferase reporter). The experiment is classed as cell-based. The following applies: Hepatitis C virus, read-out: % inhibition of replication (luciferase). The method, then:
A cell line, ET (Huh-lucubineo-ET) was used for screening of compounds for inhibiting HCV RNA dependent RNA polymerase. The ET cell line was stably transfected with RNA transcripts harboring a I389luc-ubi-neo/NS3-3′/ET; replicon with firefly luciferase-ubiquitin-neomycin phosphotransferase fusion protein and EMCV-IRES driven NS3-5B polyprotein containing the cell culture adaptive mutations (E1202G; T1280I; K1846T) (Krieger at al, 2001 and unpublished). The ET cells were grown in DMEM, supplemented with 10% fetal calf serum, 2 mM Glutamine, Penicillin (100 IU/mL)/Streptomycin (100 μg/mL), 1× nonessential amino acids, and 250 μg/mL G418 (“Geneticin”). They were all available through Life Technologies (Bethesda, Md.). The cells were plated at 0.5-1.0×10^4 cells/well in the 96 well plates and incubated for 24 hrs before adding test compound. […] Luciferase activity was measured 48-72 hours later by adding a lysis buffer and the substrate (Catalog number Glo-lysis buffer E2661 and Bright-Glo luciferase system E2620 Promega, Madison, Wis.). […] Under the same condition, cytotoxicity of the compounds was determined using cell proliferation reagent, WST-1 (Roche, Germany). […] IC50 and TC50 values were calculated by fitting % inhibition at each concentration to the following equation: % inhibition=100%/[(IC50/[I])^b+1] where b is Hill's coefficient. […]
Background: A replicon is a self-replicating genome or part of one, used to study replication in cells.

The target in experiment [2] is T1, HCV-NS5b (Hepatitis C virus genotype 1b, UniProt Q9WMX2).
T1 construct: The cloned fragment was missing the C terminus 21 amino acid residues; (His)6 (C); made in house; host or cells: XL-1 cells (E. coli)
The experiment in a line: HCV-NS5b enzyme assay. The experiment is classed as biochemical. The following applies: recombinant NS5b, 37° C., 2 hours, read-out: % inhibition of polymerase activity ([3H]-UTP incorporation). From the text:
The coding sequence of NS5b protein was cloned by PCR from pFKI389luc/NS3-3′/ET as described by Lohmann, V., et al. (1999) Science 285, 110-113 using the primers shown on page 266 of WO 2005/012288.
The cloned fragment was missing the C terminus 21 amino acid residues. The cloned fragment was inserted into an IPTG-inducible expression plasmid that provides an epitope tag (His)6 at the carboxy terminus of the protein.
The recombinant enzyme was expressed in XL-1 cells and after induction of expression, the protein was purified using affinity chromatography on a nickel-NTA column. Storage condition was 10 mM Tris-HCl pH 7.5, 50 mM NaCl, 0.1 mM EDTA, 1 mM DTT, 20% glycerol at −20° C.
The polymerase activity was assayed by measuring incorporation of radiolabeled UTP into a RNA product using a biotinylated, heteropolymeric template, which includes a portion of the HCV genome. Typically, the assay mixture (34 μL) contains 10 mM Tris-HCl (pH 7.5), 5 mM MgCl2, 0.2 mM EDTA, 10 mM KCl, 1 unit/μL RNAsin, 1 mM DTT, 10 μM each of NTP, including [^3H]-UTP, and 10 ng/μL biotinylated heteropolymeric template. […] Incorporation of radioactivity was determined by scintillation counting (cpm). The % Inhibition at a particular concentration was determined using the following equation, % Inhibition=100−[100*(cpm with inhibitor−bg)/(cpm with no inhibitor−bg)] where bg was the background with no enzyme.

In the case of `C#Cc1cn(C2OC(COP(=O)(NC(C)C(=O)OC)Oc3ccccc3)[C@@H](O)[C@@]2(C)F)c2ncnc(N)c12` (stereo partly drawn) [[4-Amino-5-ethynyl-7-(2-deoxy-2-fluoro-2-C-methyl-β-D-ribofuanosyl)-7H-pyrrolo[2,3-d]pyrimidine]5′-[Rp/Sp-Methoxyalaninylphenylphosphate]], the inhibition at 12.5 µM in experiment [1] came to 11%.
On to `C#Cc1cn(C2OC(CO)[C@@H](O)[C@@]2(C)F)c2ncnc(N)c12` (stereo in doubt) [4-Amino-5-ethynyl-7-(2-deoxy-2-fluoro-2-C-methyl-β-D-ribofuanosyl)-7H-pyrrolo[2,3-d]pyrimidine], for which the inhibition at 50 µM in experiment [1] was found to be 60%.
Take `C#Cc1cn(C2OC(COP(=O)(O)OP(=O)(O)OP(=O)(O)O)[C@@H](O)[C@@]2(C)F)c2ncnc(N)c12` (stereo partly drawn) [[4-Amino-5-ethynyl-7-(2-deoxy-2-fluoro-2-C-methyl-β-D-ribofuanosyl)-7H-pyrrolo[2,3-d]pyrimidine]5′-triphosphate]: in experiment [2], the inhibition at 6 µM is 95%.
